According to US20220023172A1, “COSMETIC COMPOSITIONS AND METHODS OF USE” (STC.UNM, priority 2018, published 2022):

Compound | melting point [°C]
Fc1ccc(/C=C/c2ccccc2F)c(F)c1 | 84 to 85
COc1cccc(/C=C/c2cc(OC)ccc2OC)c1 | 48 to 49
Cc1ccc(/C=C/c2ccc(F)c(F)c2)cc1 | 90 to 92
Fc1ccc(/C=C/c2ccccc2F)cc1F | 85 to 86
COc1ccccc1/C=C/c1ccccc1F | 34 to 35
COc1cccc(/C=C/c2ccccc2OC)c1 | 49 to 50
COc1ccc(OC)c(/C=C/c2ccc(F)cc2)c1 | 58 to 59
Fc1cccc(/C=C/c2ccc(F)c(F)c2)c1 | 48 to 49
COc1cccc(/C=C/c2ccc(C)cc2)c1OC | 38 to 40
COc1cccc(/C=C/c2ccc(F)cc2)c1OC | 50 to 51
Fc1ccc(/C=C/c2cc(F)ccc2F)cc1 | 76 to 77
COc1cccc(/C=C/c2ccc(C(F)(F)F)cc2)c1OC | 67 to 69
Fc1ccc(F)c(/C=C/c2ccccc2F)c1 | 79 to 81
COc1ccc(/C=C/c2ccc(F)c(F)c2)cc1 | 73 to 74
Fc1cccc(/C=C/c2cc(F)ccc2F)c1 | 73 to 74
Cc1ccc(/C=C/c2ccc(F)cc2F)cc1 | 72 to 73
Fc1cccc(/C=C/c2ccc(F)cc2F)c1 | 60 to 61
COc1ccc(/C=C/c2cc(F)ccc2F)cc1 | 109 to 110
